From ChEMBL document CHEMBL5291721, “A preclinical secondary pharmacology resource illuminates target-adverse drug reaction associations of marketed drugs” (Nat Commun, 2023)

Tests used:
[1] = biological target: Epidermal growth factor receptor (Homo sapiens, UniProt P00533); assay type: functional
[2] = biological target: 5-hydroxytryptamine receptor 6 (Homo sapiens, UniProt P50406)
[3] = biological target: 5-hydroxytryptamine receptor 7 (Homo sapiens, UniProt P34969)
[4] = biological target: Prostaglandin G/H synthase 1 (Homo sapiens, UniProt P23219); assay type: functional
Prostaglandin G/H synthase 1, sequence (P23219 whole entry): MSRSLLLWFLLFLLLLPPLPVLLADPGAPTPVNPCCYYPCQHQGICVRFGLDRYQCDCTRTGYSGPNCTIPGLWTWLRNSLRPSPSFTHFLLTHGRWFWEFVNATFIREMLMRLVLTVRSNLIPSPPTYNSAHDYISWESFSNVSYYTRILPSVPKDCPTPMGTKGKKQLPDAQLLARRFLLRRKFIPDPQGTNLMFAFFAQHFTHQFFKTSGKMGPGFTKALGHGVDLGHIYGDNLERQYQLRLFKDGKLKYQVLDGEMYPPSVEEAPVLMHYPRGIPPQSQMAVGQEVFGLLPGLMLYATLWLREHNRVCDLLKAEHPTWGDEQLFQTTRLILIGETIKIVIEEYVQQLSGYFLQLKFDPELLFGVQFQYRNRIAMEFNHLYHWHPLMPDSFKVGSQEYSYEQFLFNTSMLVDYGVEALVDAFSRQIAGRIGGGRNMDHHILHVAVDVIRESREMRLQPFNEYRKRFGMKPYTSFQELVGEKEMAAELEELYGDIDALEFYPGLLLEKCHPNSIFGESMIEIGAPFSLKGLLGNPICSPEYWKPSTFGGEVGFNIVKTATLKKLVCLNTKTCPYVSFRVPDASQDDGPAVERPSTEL

Thromboxane A2 receptor [5] = biological target: T1, Thromboxane A2 receptor (Homo sapiens, UniProt P21731); assay type: functional, cell-based
T1 sequence (P21731 whole entry): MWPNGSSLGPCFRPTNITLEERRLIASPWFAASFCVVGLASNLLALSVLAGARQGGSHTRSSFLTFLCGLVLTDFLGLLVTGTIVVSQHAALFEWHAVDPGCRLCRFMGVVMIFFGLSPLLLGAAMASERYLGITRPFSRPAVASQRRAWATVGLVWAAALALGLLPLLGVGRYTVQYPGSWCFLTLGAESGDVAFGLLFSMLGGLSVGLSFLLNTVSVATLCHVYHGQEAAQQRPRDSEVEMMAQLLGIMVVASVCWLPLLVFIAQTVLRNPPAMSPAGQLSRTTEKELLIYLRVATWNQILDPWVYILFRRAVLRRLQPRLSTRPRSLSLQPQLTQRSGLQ

[6] = biological target: T2, Amine oxidase [flavin-containing] A (Homo sapiens, UniProt P21397); assay type: functional
T2 sequence (P21397 whole entry): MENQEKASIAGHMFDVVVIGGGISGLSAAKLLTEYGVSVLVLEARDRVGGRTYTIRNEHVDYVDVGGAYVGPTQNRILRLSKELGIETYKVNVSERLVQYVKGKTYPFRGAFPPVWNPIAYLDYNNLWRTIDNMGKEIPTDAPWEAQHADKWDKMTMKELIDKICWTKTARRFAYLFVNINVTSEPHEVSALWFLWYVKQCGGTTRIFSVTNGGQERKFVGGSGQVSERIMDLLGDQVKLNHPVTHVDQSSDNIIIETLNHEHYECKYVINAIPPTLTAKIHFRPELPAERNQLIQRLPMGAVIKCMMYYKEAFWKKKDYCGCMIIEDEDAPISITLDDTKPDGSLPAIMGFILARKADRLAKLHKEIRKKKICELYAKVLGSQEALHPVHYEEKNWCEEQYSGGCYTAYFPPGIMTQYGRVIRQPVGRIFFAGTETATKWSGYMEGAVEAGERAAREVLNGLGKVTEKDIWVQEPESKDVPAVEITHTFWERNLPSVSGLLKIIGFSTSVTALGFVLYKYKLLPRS

[7] = biological target: T3, Alpha-2A adrenergic receptor (Homo sapiens, UniProt P08913)
T3 sequence (P08913 whole entry): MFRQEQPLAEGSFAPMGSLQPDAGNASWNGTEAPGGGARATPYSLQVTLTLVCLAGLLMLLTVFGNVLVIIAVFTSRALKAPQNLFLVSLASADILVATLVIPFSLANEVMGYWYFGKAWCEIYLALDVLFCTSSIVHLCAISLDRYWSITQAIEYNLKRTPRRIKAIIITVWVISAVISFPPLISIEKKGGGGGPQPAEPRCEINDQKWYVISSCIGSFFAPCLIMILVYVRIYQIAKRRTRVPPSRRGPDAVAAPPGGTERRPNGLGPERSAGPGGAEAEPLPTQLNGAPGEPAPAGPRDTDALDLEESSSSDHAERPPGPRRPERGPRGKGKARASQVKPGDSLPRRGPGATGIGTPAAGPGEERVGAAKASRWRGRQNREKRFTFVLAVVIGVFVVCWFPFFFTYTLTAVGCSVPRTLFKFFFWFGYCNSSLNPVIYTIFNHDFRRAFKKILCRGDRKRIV

[8] = biological target: Hydroxycarboxylic acid receptor 2 (Homo sapiens, UniProt Q8TDS4)
Hydroxycarboxylic acid receptor 2, sequence (Q8TDS4 whole entry): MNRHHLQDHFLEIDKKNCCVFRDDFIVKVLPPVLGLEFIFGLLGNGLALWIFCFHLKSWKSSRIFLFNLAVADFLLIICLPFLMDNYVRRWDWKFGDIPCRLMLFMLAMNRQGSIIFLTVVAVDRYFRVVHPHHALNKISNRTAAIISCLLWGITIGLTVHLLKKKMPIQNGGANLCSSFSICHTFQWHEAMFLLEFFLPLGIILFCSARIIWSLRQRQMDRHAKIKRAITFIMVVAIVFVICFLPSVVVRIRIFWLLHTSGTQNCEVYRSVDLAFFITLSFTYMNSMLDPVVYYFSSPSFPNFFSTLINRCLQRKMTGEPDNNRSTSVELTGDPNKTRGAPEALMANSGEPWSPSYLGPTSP

Thromboxane A2 receptor [9] = biological target: T1, Thromboxane A2 receptor; assay type: functional
Note: assay procedure not described here.

5-hydroxytryptamine receptor 7, sequence (P34969 whole entry): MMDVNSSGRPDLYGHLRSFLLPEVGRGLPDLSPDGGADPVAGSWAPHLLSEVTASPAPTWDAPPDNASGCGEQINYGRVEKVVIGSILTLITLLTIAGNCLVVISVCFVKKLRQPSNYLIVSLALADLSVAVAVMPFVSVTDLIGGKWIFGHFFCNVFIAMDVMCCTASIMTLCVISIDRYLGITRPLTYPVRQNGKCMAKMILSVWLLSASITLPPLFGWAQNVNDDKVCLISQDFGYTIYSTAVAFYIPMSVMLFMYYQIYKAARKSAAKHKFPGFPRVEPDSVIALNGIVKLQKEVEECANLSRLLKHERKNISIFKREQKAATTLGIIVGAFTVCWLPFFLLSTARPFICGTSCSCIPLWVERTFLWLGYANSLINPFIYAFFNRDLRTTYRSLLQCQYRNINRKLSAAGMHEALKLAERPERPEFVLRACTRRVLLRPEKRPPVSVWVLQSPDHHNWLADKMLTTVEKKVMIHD
5-hydroxytryptamine receptor 6, sequence (P50406 whole entry): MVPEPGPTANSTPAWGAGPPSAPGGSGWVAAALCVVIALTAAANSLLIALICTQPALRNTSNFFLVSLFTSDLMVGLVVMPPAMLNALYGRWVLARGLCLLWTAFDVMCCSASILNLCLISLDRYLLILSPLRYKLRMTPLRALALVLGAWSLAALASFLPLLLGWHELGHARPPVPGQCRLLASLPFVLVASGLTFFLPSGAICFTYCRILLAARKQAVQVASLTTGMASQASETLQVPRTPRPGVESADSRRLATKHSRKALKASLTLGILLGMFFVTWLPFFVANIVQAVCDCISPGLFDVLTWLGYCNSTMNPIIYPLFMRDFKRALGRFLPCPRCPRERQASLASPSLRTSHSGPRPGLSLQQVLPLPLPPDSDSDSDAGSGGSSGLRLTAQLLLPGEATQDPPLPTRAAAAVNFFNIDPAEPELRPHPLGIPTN
Epidermal growth factor receptor, sequence (P00533 whole entry): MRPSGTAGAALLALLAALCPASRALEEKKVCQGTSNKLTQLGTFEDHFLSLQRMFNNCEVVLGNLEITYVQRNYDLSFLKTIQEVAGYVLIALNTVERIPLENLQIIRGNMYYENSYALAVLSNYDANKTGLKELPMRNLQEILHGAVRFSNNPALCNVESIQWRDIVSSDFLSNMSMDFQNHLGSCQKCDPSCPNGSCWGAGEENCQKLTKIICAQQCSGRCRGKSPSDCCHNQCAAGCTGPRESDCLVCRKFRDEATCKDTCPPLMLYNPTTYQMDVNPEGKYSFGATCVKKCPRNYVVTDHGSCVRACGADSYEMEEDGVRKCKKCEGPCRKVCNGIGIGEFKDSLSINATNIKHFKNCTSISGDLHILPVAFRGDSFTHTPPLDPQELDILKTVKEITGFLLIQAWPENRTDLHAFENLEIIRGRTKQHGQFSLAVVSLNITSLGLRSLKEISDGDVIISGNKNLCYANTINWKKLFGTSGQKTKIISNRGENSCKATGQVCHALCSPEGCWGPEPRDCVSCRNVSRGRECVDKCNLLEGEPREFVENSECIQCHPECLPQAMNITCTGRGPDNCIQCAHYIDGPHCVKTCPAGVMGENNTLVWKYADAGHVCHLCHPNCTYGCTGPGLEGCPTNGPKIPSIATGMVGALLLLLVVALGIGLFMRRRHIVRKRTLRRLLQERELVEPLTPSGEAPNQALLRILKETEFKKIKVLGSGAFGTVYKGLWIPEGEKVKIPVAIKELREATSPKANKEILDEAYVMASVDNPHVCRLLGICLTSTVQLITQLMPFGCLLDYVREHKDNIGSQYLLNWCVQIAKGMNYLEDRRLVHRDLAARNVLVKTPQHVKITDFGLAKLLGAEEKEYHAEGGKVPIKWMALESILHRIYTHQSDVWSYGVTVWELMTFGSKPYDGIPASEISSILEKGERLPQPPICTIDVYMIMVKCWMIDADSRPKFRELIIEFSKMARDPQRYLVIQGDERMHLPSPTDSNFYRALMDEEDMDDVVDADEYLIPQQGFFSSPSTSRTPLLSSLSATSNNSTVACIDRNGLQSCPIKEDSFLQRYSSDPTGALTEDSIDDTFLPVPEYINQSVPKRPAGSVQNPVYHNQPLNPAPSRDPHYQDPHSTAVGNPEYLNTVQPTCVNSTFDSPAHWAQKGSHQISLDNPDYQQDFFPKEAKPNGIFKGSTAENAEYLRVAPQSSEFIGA

Compound: CC(CC1c2ccccc2CCc2ccccc21)CN(C)C (centres undefined) [BUTRIPTYLINE]
- AC50 [1]: > 30 µM

Compound: Cc1c(OCC(F)(F)F)ccnc1C[S+]([O-])c1nc2ccccc2[nH]1 (centres undefined) [LANSOPRAZOLE]
- AC50 [2]: > 10 µM
- AC50 [3]: > 10 µM

Compound: CO[C@]12C[C@@H](COC(=O)c3cncc(Br)c3)CN(C)[C@@H]1Cc1cn(C)c3cccc2c13 [NICERGOLINE]
- AC50 [4]: > 30 µM
- AC50 (Thromboxane A2 receptor [5]): 7.6 µM
- AC50 [6]: > 30 µM
- AC50 [7]: 42.6 nM

Compound: COc1cccc(C2(O)CCCCC2CN(C)C)c1 (centres undefined) [TRAMADOL]
- AC50 [8]: > 10 µM

Compound: THIMEROSAL
- AC50 (Thromboxane A2 receptor [9]): > 30 µM
